ChEMBL document CHEMBL4219190, “Studies on synthesis of novel pyrido[2,3-d]pyrimidine derivatives, evaluation of their antimicrobial activity and molecular docking” (Bioorg Med Chem Lett, 2018)
In brackets after ≈: the same amount, converted by molar mass. Activity calls are given as the source filed them. The rule behind the calls is not given here.

Columns and labels:
Raoultella planticola [1] = test: Bactericidal activity against Klebsiella planticola MTCC 530 incubated for 24 hrs followed by transfer of microbial suspension to Mueller Hinton agar plates and measured after 24 hrs post transfer; type: functional
Pichia kudriavzevii [2] = test: Antifungal activity against Candida krusei MTCC 3020 after 24 hrs by well diffusion method; type: functional
[Candida] aaseri [3] = Antifungal activity against Candida aaseri MTCC 1962 after 24 hrs by well diffusion method; type: functional; settings: Yamadazyma aaseri, MTCC 1962, 24 h
Escherichia coli [4] = test: Bactericidal activity against Escherichia coli MTCC 739 incubated for 24 hrs followed by transfer of microbial suspension to Mueller Hinton agar plates and measured after 24 hrs post transfer; type: functional
Staphylococcus aureus [5] = test: Antibacterial activity against Staphylococcus aureus MLS16 MTCC 2940 after 24 hrs by well diffusion method; type: functional
Bacillus subtilis [6] = test: Antibacterial activity against Bacillus subtilis MTCC 121 after 24 hrs by well diffusion method; type: functional
Candida parapsilosis [7] = test: Antifungal activity against Candida parapsilosis MTCC 1744 after 24 hrs by well diffusion method; type: functional; settings: MTCC 1744, 24 h
[Candida] aaseri [8] = Fungicidal activity against Candida aaseri MTCC 1962 incubated for 24 hrs followed by transfer of microbial suspension to Sabouraud dextrose agar plates and measured after 24 hrs post transfer; type: functional; settings: Yamadazyma aaseri, MTCC 1962, 24 h
Pseudomonas aeruginosa [9] = test: Antibacterial activity against Pseudomonas aeruginosa MTCC 2453 after 24 hrs by well diffusion method; type: functional
Staphylococcus aureus [10] = test: Antibiofilm activity against Staphylococcus aureus MLS16 MTCC 2940 after 24 hrs by crystal violet staining-based assay; type: functional, organism-based
Candida albicans [11] = test: Antifungal activity against Candida albicans MTCC 4748 after 24 hrs by well diffusion method; type: functional; settings: MTCC 4748, 24 h
Candida albicans [12] = test: Antifungal activity against Candida albicans MTCC 1637 after 24 hrs by well diffusion method; type: functional
Candida albicans [13] = test: Fungicidal activity against Candida albicans MTCC 183 incubated for 24 hrs followed by transfer of microbial suspension to Sabouraud dextrose agar plates and measured after 24 hrs post transfer; type: functional; settings: MTCC 183, 24 h
Staphylococcus aureus [14] = test: Antibacterial activity against Staphylococcus aureus MTCC 96 after 24 hrs by well diffusion method; type: functional
Candida albicans [15] = test: Fungicidal activity against Candida albicans MTCC 7315 incubated for 24 hrs followed by transfer of microbial suspension to Sabouraud dextrose agar plates and measured after 24 hrs post transfer; type: functional; settings: MTCC 7315, 24 h
Candida albicans [16] = test: Antifungal activity against Candida albicans MTCC 7315 after 24 hrs by well diffusion method; type: functional; settings: MTCC 7315, 24 h
Candida albicans [17] = test: Antifungal activity against Candida albicans MTCC 3017 after 24 hrs by well diffusion method; type: functional; settings: MTCC 3017, 24 h
Candida albicans [18] = test: Antifungal activity against Candida albicans MTCC 854 after 24 hrs by well diffusion method; type: functional
Micrococcus luteus [19] = test: Antibacterial activity against Micrococcus luteus MTCC 2470 after 24 hrs by well diffusion method; type: functional
Candida albicans [20] = test: Fungicidal activity against Candida albicans MTCC 854 incubated for 24 hrs followed by transfer of microbial suspension to Sabouraud dextrose agar plates and measured after 24 hrs post transfer; type: functional
Candida albicans [21] = test: Fungicidal activity against Candida albicans MTCC 3017 incubated for 24 hrs followed by transfer of microbial suspension to Sabouraud dextrose agar plates and measured after 24 hrs post transfer; type: functional; settings: MTCC 3017, 24 h
Candida albicans [22] = test: Antifungal activity against Candida albicans MTCC 227 after 24 hrs by well diffusion method; type: functional
Staphylococcus aureus [23] = test: Antibiofilm activity against Staphylococcus aureus MTCC 96 after 24 hrs by crystal violet staining-based assay; type: functional, organism-based; settings: Staphylococcus aureus, MTCC 96, 24 h; read-out: IC50
Candida albicans [24] = test: Fungicidal activity against Candida albicans MTCC 1637 incubated for 24 hrs followed by transfer of microbial suspension to Sabouraud dextrose agar plates and measured after 24 hrs post transfer; type: functional
Candida albicans [25] = test: Antifungal activity against Candida albicans MTCC 3018 after 24 hrs by well diffusion method; type: functional
Nakaseomyces glabratus [26] = test: Fungicidal activity against Candida glabrata MTCC 3019 incubated for 24 hrs followed by transfer of microbial suspension to Sabouraud dextrose agar plates and measured after 24 hrs post transfer; type: functional; settings: MTCC 3019, 24 h
Nakaseomyces glabratus [27] = test: Antifungal activity against Candida glabrata MTCC 3019 after 24 hrs by well diffusion method; type: functional; settings: MTCC 3019, 24 h
Bacillus subtilis [28] = test: Bactericidal activity against Bacillus subtilis MTCC 121 incubated for 24 hrs followed by transfer of microbial suspension to Mueller Hinton agar plates and measured after 24 hrs post transfer; type: functional
Pichia sporocuriosa [29] = test: Fungicidal activity against Issatchenkia hanoiensis MTCC 4755 incubated for 24 hrs followed by transfer of microbial suspension to Sabouraud dextrose agar plates and measured after 24 hrs post transfer; type: functional; settings: MTCC 4755, 24 h
Escherichia coli [30] = test: Antibacterial activity against Escherichia coli MTCC 739 after 24 hrs by well diffusion method; type: functional
Candida albicans [31] = test: Antifungal activity against Candida albicans MTCC 3958 after 24 hrs by well diffusion method; type: functional
Staphylococcus aureus [32] = test: Bactericidal activity against Staphylococcus aureus MLS16 MTCC 2940 incubated for 24 hrs followed by transfer of microbial suspension to Mueller Hinton agar plates and measured after 24 hrs post transfer; type: functional
Pichia kudriavzevii [33] = test: Fungicidal activity against Candida krusei MTCC 3020 incubated for 24 hrs followed by transfer of microbial suspension to Sabouraud dextrose agar plates and measured after 24 hrs post transfer; type: functional
Pseudomonas aeruginosa [34] = test: Antibiofilm activity against Pseudomonas aeruginosa MTCC 2453 after 24 hrs by crystal violet staining-based assay; type: functional, organism-based
Candida albicans [35] = test: Antifungal activity against Candida albicans MTCC 183 after 24 hrs by well diffusion method; type: functional; settings: MTCC 183, 24 h
Bacillus subtilis [36] = test: Antibiofilm activity against Bacillus subtilis MTCC 121 after 24 hrs by crystal violet staining-based assay; type: functional, organism-based
Staphylococcus aureus [37] = test: Bactericidal activity against Staphylococcus aureus MTCC 96 incubated for 24 hrs followed by transfer of microbial suspension to Mueller Hinton agar plates and measured after 24 hrs post transfer; type: functional; settings: MTCC 96, 24 h
Candida albicans [38] = test: Fungicidal activity against Candida albicans MTCC 4748 incubated for 24 hrs followed by transfer of microbial suspension to Sabouraud dextrose agar plates and measured after 24 hrs post transfer; type: functional; settings: MTCC 4748, 24 h
Pichia sporocuriosa [39] = test: Antifungal activity against Issatchenkia hanoiensis MTCC 4755 after 24 hrs by well diffusion method; type: functional; settings: MTCC 4755, 24 h
Raoultella planticola [40] = test: Antibiofilm activity against Klebsiella planticola MTCC 530 after 24 hrs by crystal violet staining-based assay; type: functional, organism-based
Candida parapsilosis [41] = test: Fungicidal activity against Candida parapsilosis MTCC 1744 incubated for 24 hrs followed by transfer of microbial suspension to Sabouraud dextrose agar plates and measured after 24 hrs post transfer; type: functional; settings: Lodderomyces parapsilosis, MTCC 1744, 24 h
Raoultella planticola [42] = test: Antibacterial activity against Klebsiella planticola MTCC 530 after 24 hrs by well diffusion method; type: functional
Micrococcus luteus [43] = test: Bactericidal activity against Micrococcus luteus MTCC 2470 incubated for 24 hrs followed by transfer of microbial suspension to Mueller Hinton agar plates and measured after 24 hrs post transfer; type: functional
Pseudomonas aeruginosa [44] = test: Bactericidal activity against Pseudomonas aeruginosa MTCC 2453 incubated for 24 hrs followed by transfer of microbial suspension to Mueller Hinton agar plates and measured after 24 hrs post transfer; type: functional
Candida albicans [45] = test: Fungicidal activity against Candida albicans MTCC 227 incubated for 24 hrs followed by transfer of microbial suspension to Sabouraud dextrose agar plates and measured after 24 hrs post transfer; type: functional
Candida albicans [46] = test: Fungicidal activity against Candida albicans MTCC 3958 incubated for 24 hrs followed by transfer of microbial suspension to Sabouraud dextrose agar plates and measured after 24 hrs post transfer; type: functional
Candida albicans [47] = test: Fungicidal activity against Candida albicans MTCC 3018 incubated for 24 hrs followed by transfer of microbial suspension to Sabouraud dextrose agar plates and measured after 24 hrs post transfer; type: functional

## O=C(NCc1ccccc1)c1nc(-c2ccccc2)c2c(C(F)(F)F)cc(-c3ccccc3)nc2n1
Raoultella planticola [1]
  MBC: inactive
Pichia kudriavzevii [2]; MTCC 3020, 24 h
  MIC: 15.6 µg/mL (≈ 32.2 µM)
[Candida] aaseri [3]
  MIC: 31.2 µg/mL (≈ 64.4 µM)
Escherichia coli [4]
  MBC: inactive
Staphylococcus aureus [5]
  MIC: inactive
Bacillus subtilis [6]
  MIC: inactive
Candida parapsilosis [7]
  MIC: 31.2 µg/mL (≈ 64.4 µM)
[Candida] aaseri [8]
  MFC: 62.5 µg/mL (≈ 129 µM)
Pseudomonas aeruginosa [9]
  MIC: inactive
Staphylococcus aureus [10]
  IC50: Not Active
Candida albicans [11]
  MIC: 62.5 µg/mL (≈ 129 µM)
Candida albicans [12]
  MIC: inactive
Candida albicans [13]
  MFC: 62.5 µg/mL (≈ 129 µM)
Staphylococcus aureus [14]; MTCC 96, 24 h
  MIC: 31.2 µg/mL (≈ 64.4 µM)
Candida albicans [15]
  MFC: 62.5 µg/mL (≈ 129 µM)
Candida albicans [16]
  MIC: 62.5 µg/mL (≈ 129 µM)
Candida albicans [17]
  MIC: 31.2 µg/mL (≈ 64.4 µM)
Candida albicans [18]
  MIC: inactive
Micrococcus luteus [19]
  MIC: inactive
Candida albicans [20]
  MFC: inactive
Candida albicans [21]
  MFC: 62.5 µg/mL (≈ 129 µM)
Candida albicans [22]
  MIC: inactive
Staphylococcus aureus [23]
  IC50: 21.6 µg/mL (≈ 44.6 µM)
Candida albicans [24]
  MFC: inactive
Candida albicans [25]
  MIC: inactive
Nakaseomyces glabratus [26]
  MFC: 31.2 µg/mL (≈ 64.4 µM)
Nakaseomyces glabratus [27]
  MIC: 15.6 µg/mL (≈ 32.2 µM)
Bacillus subtilis [28]
  MBC: inactive
Pichia sporocuriosa [29]
  MFC: 62.5 µg/mL (≈ 129 µM)
Escherichia coli [30]
  MIC: inactive
Candida albicans [31]
  MIC: inactive
Staphylococcus aureus [32]
  MBC: inactive
Pichia kudriavzevii [33]; MTCC 3020, 24 h
  MFC: 31.2 µg/mL (≈ 64.4 µM)
Pseudomonas aeruginosa [34]
  IC50: Not Active
Candida albicans [35]
  MIC: 31.2 µg/mL (≈ 64.4 µM)
Bacillus subtilis [36]
  IC50: Not Active
Staphylococcus aureus [37]
  MBC: 31.2 µg/mL (≈ 64.4 µM)
Candida albicans [38]
  MFC: 62.5 µg/mL (≈ 129 µM)
Pichia sporocuriosa [39]
  MIC: 31.2 µg/mL (≈ 64.4 µM)
Raoultella planticola [40]
  IC50: Not Active
Candida parapsilosis [41]
  MFC: 62.5 µg/mL (≈ 129 µM)
Raoultella planticola [42]
  MIC: inactive
Micrococcus luteus [43]
  MBC: inactive
Pseudomonas aeruginosa [44]
  MBC: inactive
Candida albicans [45]
  MFC: inactive
Candida albicans [46]
  MFC: inactive
Candida albicans [47]
  MFC: inactive

## O=C(c1nc(-c2ccccc2)c2c(C(F)(F)F)cc(-c3ccccc3)nc2n1)N1CCCC1
Pichia kudriavzevii [2]
  MIC: inactive
[Candida] aaseri [3]
  MIC: 7.8 µg/mL (≈ 17.4 µM)
Staphylococcus aureus [5]
  MIC: inactive
Bacillus subtilis [6]
  MIC: inactive
Candida parapsilosis [7]
  MIC: 15.6 µg/mL (≈ 34.8 µM)
[Candida] aaseri [8]
  MFC: 15.6 µg/mL (≈ 34.8 µM)
Pseudomonas aeruginosa [9]
  MIC: inactive
Candida albicans [11]
  MIC: 62.5 µg/mL (≈ 139 µM)
Candida albicans [12]; MTCC 1637, 24 h
  MIC: 7.8 µg/mL (≈ 17.4 µM)
Candida albicans [13]
  MFC: 15.6 µg/mL (≈ 34.8 µM)
Staphylococcus aureus [14]
  MIC: inactive
Candida albicans [15]
  MFC: 31.2 µg/mL (≈ 69.6 µM)
Candida albicans [16]
  MIC: 15.6 µg/mL (≈ 34.8 µM)
Candida albicans [17]
  MIC: 7.8 µg/mL (≈ 17.4 µM)
Candida albicans [18]; MTCC 854, 24 h
  MIC: 7.8 µg/mL (≈ 17.4 µM)
Micrococcus luteus [19]
  MIC: inactive
Candida albicans [20]; MTCC 854, 24 h
  MFC: 15.6 µg/mL (≈ 34.8 µM)
Candida albicans [21]
  MFC: 15.6 µg/mL (≈ 34.8 µM)
Candida albicans [22]; MTCC 227, 24 h
  MIC: 15.6 µg/mL (≈ 34.8 µM)
Candida albicans [24]; MTCC 1637, 24 h
  MFC: 15.6 µg/mL (≈ 34.8 µM)
Candida albicans [25]; MTCC 3018, 24 h
  MIC: 31.2 µg/mL (≈ 69.6 µM)
Nakaseomyces glabratus [26]
  MFC: 31.2 µg/mL (≈ 69.6 µM)
Nakaseomyces glabratus [27]
  MIC: 31.2 µg/mL (≈ 69.6 µM)
Pichia sporocuriosa [29]
  MFC: 62.5 µg/mL (≈ 139 µM)
Escherichia coli [30]
  MIC: inactive
Candida albicans [31]; MTCC 3958, 24 h
  MIC: 31.2 µg/mL (≈ 69.6 µM)
Pichia kudriavzevii [33]
  MFC: inactive
Candida albicans [35]
  MIC: 7.8 µg/mL (≈ 17.4 µM)
Candida albicans [38]
  MFC: 62.5 µg/mL (≈ 139 µM)
Pichia sporocuriosa [39]
  MIC: 31.2 µg/mL (≈ 69.6 µM)
Candida parapsilosis [41]
  MFC: 15.6 µg/mL (≈ 34.8 µM)
Raoultella planticola [42]
  MIC: inactive
Candida albicans [45]; MTCC 227, 24 h
  MFC: 31.2 µg/mL (≈ 69.6 µM)
Candida albicans [46]; MTCC 3958, 24 h
  MFC: 62.5 µg/mL (≈ 139 µM)
Candida albicans [47]; MTCC 3018, 24 h
  MFC: 62.5 µg/mL (≈ 139 µM)
